Test results from patent publication US8058270B2, “Dihydropteridinones for the treatment of cancer diseases” (Boehringer Ingelheim International GmbH, priority 2004, dated 2011).

What was measured:
Assay type in all cases: cell-based
MES-SA = test: Alamar Blue cytotoxicity assay; conditions: Homo sapiens; MES-SA (Uterus), 72 h
Description: (§1) Alamar Blue™ Cytotoxicity Assays
(§2) The Alamar Blue™ assay is designed to measure quantitatively the proliferation of cells by incorporating a fluorometric/colorimetric growth indicator based on the detection of metabolic activity.
(§3) Cell culture: The various human tumor cell lines can be purchased from American Type Culture Collection (ATCC) or the German Collection of Microorganisms and Cell Cultures (DSMZ) and cultivated in 75 to 175 cm^2 tissue culture flasks in the medium indicated by the supplier. The cells are maintained at 37° C. and 5% CO2 in a humidified atmosphere, with an appropriate split ratio. Logarithmically growing cells are used for the assays.
(§4) Assay conditions: On day one of the experiment 1000-4000 cells (in 100 μl medium) are seeded into each well of a sterile 96-well plate. The number of cells used is dependent on the growth rate and size of the cells. Eight wells on each plate are left free to accommodate for controls (4 wells for medium plus reduced AlamarBlue™, and 4 wells for medium plus oxidized AlamarBlue™). The plates are kept in the incubator overnight. On day two of the experiment serial dilutions of the inhibitor are prepared in medium containing 0.1% DMSO. Typical concentrations used are 10, 3, 1, 0.3, 0.1, 0.03, 0.01, 0.003 and 0.001 μM. 100 μl of the dilution (2× concentrate) is added to each well to yield a final volume of 200 μl per well. As controls plain medium and medium containing 0.1% DMSO are added to the designated wells. All data points are done in quadruplicates. The cells are then incubated for 72 h. After this incubation period 20 μl of AlamarBlue™ is added to each well. As a control, 20 μl of reduced AlamarBlue™ (AlamarBlue™ autoclaved for 30 min) is added to 4 wells without cells, and 20 μl of AlamarBlue™ is added to the remaining 4 wells without cells. After 4-5 h of incubation, the plates are measured in a fluorescence spectrophotometer (excitation 530 nm, emission 590 nm, slits 15, integrate time 0.1).
(§5) Data analysis: For calculation the mean value from the quadruplicates is taken and the background is subtracted. The 0.1% DMSO value (the mean obtained from 8 wells with cells in medium with 0.1% DMSO but no compound) is taken as 100% control. The data is fitted by iterative calculations using a sigmoidal curve analysis program (Graph Pad Prism version 3.03) with variable Hill slope.

NCI-N87 = test: Alamar Blue cytotoxicity assay; conditions: Homo sapiens; NCI-N87 (Stomach), 72 h
Description: as §1, §2, §3, §4, §5

BxPC-3 [1] = test: Alamar Blue cytotoxicity assay; conditions: Homo sapiens; BxPC-3 (Pancreas), 72 h
Description: as §1, §2, §3, §4, §5

NCI-H520 [2] = test: Alamar Blue cytotoxicity assay; conditions: Homo sapiens; NCI-H520 (Lung), 72 h
Description: as §1, §2, §3, §4, §5

A549 [3] = test: Alamar Blue cytotoxicity assay; conditions: Homo sapiens; A549 (Lung), 72 h
Description: as §1, §2, §3, §4, §5

GRANTA-519 [4] = test: Alamar Blue cytotoxicity assay; conditions: Homo sapiens; GRANTA-519 (Lymphoma), 72 h
Description: as §1, §2, §3, §4, §5

Raji [5] = test: Alamar Blue cytotoxicity assay; conditions: Homo sapiens; Raji (Lymphoma), 72 h
Description: as §1, §2, §3, §4, §5

HCT116 = test: Alamar Blue cytotoxicity assay; conditions: Homo sapiens, HCT-116; HCT116 (Colon), 72 h
Description: as §1, §2, §3, §4, §5

Colo 205 = test: Alamar Blue cytotoxicity assay; conditions: Homo sapiens; Colo 205 (Colon), 72 h
Description: as §1, §2, §3, §4, §5

BRO = test: Alamar Blue cytotoxicity assay; conditions: Homo sapiens; BRO (Melanoma), 72 h
Description: as §1, §2, §3, §4, §5

PC-3 [6] = test: Alamar Blue cytotoxicity assay; conditions: Homo sapiens; PC-3 (Prostate), 72 h
Description: as §1, §2, §3, §4, §5

HeLa S3 [7] = test: Alamar Blue cytotoxicity assay; conditions: Homo sapiens; HeLa S3 (Cervix), 72 h
Description: as §1, §2, §3, §4, §5

Saos-2 [8] = test: Alamar Blue cytotoxicity assay; conditions: Homo sapiens; Saos-2 (Bone), 72 h
Description: as §1, §2, §3, §4, §5

SKOV-3 [9] = test: Alamar Blue cytotoxicity assay; conditions: Homo sapiens, SK-OV-3; SKOV-3 (Ovary), 72 h
Description: as §1, §2, §3, §4, §5

DU145 = test: Alamar Blue cytotoxicity assay; conditions: Homo sapiens, DU-145; DU145 (Prostate), 72 h
Description: as §1, §2, §3, §4, §5

H4 [10] = test: Alamar Blue cytotoxicity assay; conditions: Homo sapiens; H4 (Brain), 72 h
Description: as §1, §2, §3, §4, §5

THP-1 = test: Alamar Blue cytotoxicity assay; conditions: Homo sapiens; THP-1 (Leukemia), 72 h
Description: as §1, §2, §3, §4, §5

A431 [11] = test: Alamar Blue cytotoxicity assay; conditions: Homo sapiens, A-431; A431 (Vulva), 72 h
Description: as §1, §2, §3, §4, §5

HL-60 = test: Alamar Blue cytotoxicity assay; conditions: Homo sapiens; HL-60 (Leukemia), 72 h
Description: as §1, §2, §3, §4, §5

Mia CaPa-2 = test: Alamar Blue cytotoxicity assay; conditions: Homo sapiens; Mia CaPa-2 (Pancreas), 72 h
Description: as §1, §2, §3, §4, §5

NCI-H460 [12] = test: Alamar Blue cytotoxicity assay; conditions: Homo sapiens; NCI-H460 (Lung), 72 h
Description: as §1, §2, §3, §4, §5

HT29 = test: Alamar Blue cytotoxicity assay; conditions: Homo sapiens, HT-29; HT29 (Colon), 72 h
Description: as §1, §2, §3, §4, §5

MCF7 = test: Alamar Blue cytotoxicity assay; conditions: Homo sapiens; MCF7 (Breast), 72 h
Description: as §1, §2, §3, §4, §5

SK-UT-1B = test: Alamar Blue cytotoxicity assay; conditions: Homo sapiens, Skut1B; SK-UT-1B (Uterus), 72 h
Description: as §1, §2, §3, §4, §5

FaDu [13] = test: Alamar Blue cytotoxicity assay; conditions: Homo sapiens; FaDu (Head and Neck), 72 h
Description: as §1, §2, §3, §4, §5

MDA-MB-435S [14] = test: Alamar Blue cytotoxicity assay; conditions: Homo sapiens; MDA-MB-435S (Breast), 72 h
Description: as §1, §2, §3, §4, §5

HepG2 [15] = test: Alamar Blue cytotoxicity assay; conditions: Homo sapiens; HepG2 (Liver), 72 h
Description: as §1, §2, §3, §4, §5

BxPC-3 [16] = test: FACS analysis on PI stained tumor cells, G2/M arrest; conditions: Homo sapiens; BxPC-3 (Pancreas), 24 hrs; read-out: FACS Analysis G2M-Arrest EC50
Description: (§6) FACS Analysis on PI Stained Tumor Cells
(§7) Propidium iodine (PI) binds stoichiometrically to double stranded DNA and thus is a suitable agent to measure the DNA content of cells in order to determine the percentage of cells residing in various cell cycle stages (G0/1-, S- and G2/M-phases), whereas cells in G0 or G1 phase do have a diploid DNA content (2N) cells in G2 and M-phase (mitosis) do have a doubled (4N) DNA content.
as §3
(§8) Assay conditions: On day one of the experiment 1×10^6 tumor cells are plated in 15 ml medium onto each 75 cm^2 tissue culture flask and the cultures are returned to the incubator. On the next day serial twofold dilutions (100× concentrated) of the inhibitor are prepared in tissue culture medium containing 10% DMSO. 150 μl of the 100× concentrated dilution is added to the 15 ml medium in the flask. As control DMSO is given into a separate flask to yield a final concentration of 0.1%. Typical final concentrations used are 1.6, […], 0.4, 0.2, 0.1, 0.05, 0.025, 0.0125, 0.00625 μM in medium containing 0.1% DMSO. After 24 hrs of incubation cells are harvested by 2× wash with PBS and subsequent addition of trypsin/EDTA. Trypsinized cells are washed off the plastic with 1% BSA in PBS. Non-adherent cells in the medium and cells in the PBS wash fluids are pelleted together with the trypsinized cells by centrifuging them for 5 min at 1000 rpm at 4° C. The supernatants are discarded and the pellet is washed twice with PBS. After aspiration of the supernatants pellets are resuspended in the residual PBS (˜100 μl). For cell fixation, 15 ml test tubes (Falcon) with 5 ml of 80% cold ethanol are prepared and the cell suspension is added slowly and kept for at least 2 h or overnight at minus 20° C. Fixed cells are pelleted, washed once with PBS and the cell pellet is then resuspended in 2 ml of 0.25% Triton X-100 in PBS. After 5 min incubation on ice, 5 ml of PBS is added to each sample and the sample is again centrifuged at 1000 rpm for 5 min at 4° C. The supernatant is discarded and the pellet is resuspended in 0.5 ml propidium iodine (PI) staining solution (0.1% RNase and 10 μg/ml propidium iodine in PBS). The cells are incubated for 20 min in the dark and subsequently transferred to 5 ml polystyrene round-bottom tubes.
(§9) Data analysis: Analysis of the DNA content of the cells can be performed using a FACS analyzer equipped with an argon laser (500 mW, emission 488 nm) and the use of the DNA Cell Quest analysis software (Beckton Dickinson). The logarithmic PI fluorescence is determined in a band-pass filter (Beckton Dickinson 585/43). Quantification of the cell populations residing in the individual cell cycle phases (e.g. G0/G1-, S- and G2/M-phases) is done with the ModFit LT software package from Becton Dickinson. An EC50 value for cells arrested at the G2/M-phase of the cell cycle is calculated by using a sigmoidal curve analysis program (Graph Pad Prism version 3.03).

NCI-H520 [17] = test: as above; conditions: Homo sapiens; NCI-H520 (Lung), 24 hrs; read-out: FACS Analysis G2M-Arrest EC50
Description: as §6, §7, §3, §8, §9

A549 [18] = test: as above; conditions: Homo sapiens; A549 (Lung), 24 hrs; read-out: FACS Analysis G2M-Arrest EC50
Description: as §6, §7, §3, §8, §9

GRANTA-519 [19] = test: as above; conditions: Homo sapiens; GRANTA-519 (Lymphoma), 24 hrs; read-out: FACS Analysis G2M-Arrest EC50
Description: as §6, §7, §3, §8, §9

Raji [20] = test: as above; conditions: Homo sapiens; Raji (Lymphoma), 24 hrs; read-out: FACS Analysis G2M-Arrest EC50
Description: as §6, §7, §3, §8, §9

PC-3 [21] = test: as above; conditions: Homo sapiens; PC-3 (Prostate), 24 hrs; read-out: FACS Analysis G2M-Arrest EC50
Description: as §6, §7, §3, §8, §9

HeLa S3 [22] = test: as above; conditions: Homo sapiens; HeLa S3 (Cervix), 24 hrs; read-out: FACS Analysis G2M-Arrest EC50
Description: as §6, §7, §3, §8, §9

Saos-2 [23] = test: as above; conditions: Homo sapiens; Saos-2 (Bone), 24 hrs; read-out: FACS Analysis G2M-Arrest EC50
Description: as §6, §7, §3, §8, §9

SKOV-3 [24] = test: as above; conditions: Homo sapiens, SK-OV-3; SKOV-3 (Ovary), 24 hrs; read-out: FACS Analysis G2M-Arrest EC50
Description: as §6, §7, §3, §8, §9

H4 [25] = test: as above; conditions: Homo sapiens; H4 (Brain), 24 hrs; read-out: FACS Analysis G2M-Arrest EC50
Description: as §6, §7, §3, §8, §9

A431 [26] = test: as above; conditions: Homo sapiens, A-431; A431 (Vulva), 24 hrs; read-out: FACS Analysis G2M-Arrest EC50
Description: as §6, §7, §3, §8, §9

NCI-H460 [27] = test: as above; conditions: Homo sapiens; NCI-H460 (Lung), 24 hrs; read-out: FACS Analysis G2M-Arrest EC50
Description: as §6, §7, §3, §8, §9

FaDu [28] = test: as above; conditions: Homo sapiens; FaDu (Head and Neck), 24 hrs; read-out: FACS Analysis G2M-Arrest EC50
Description: as §6, §7, §3, §8, §9

MDA-MB-435S [29] = test: as above; conditions: Homo sapiens; MDA-MB-435S (Breast), 24 hrs; read-out: FACS Analysis G2M-Arrest EC50
Description: as §6, §7, §3, §8, §9

HepG2 [30] = test: as above; conditions: Homo sapiens; HepG2 (Liver), 24 hrs; read-out: FACS Analysis G2M-Arrest EC50
Description: as §6, §7, §3, §8, §9

## CC[C@@H]1C(=O)N(C)c2cnc(Nc3ccc(C(=O)NC4CCN(C)CC4)cc3OC)nc2N1C1CCCC1 [4-[[(7R)-8-cyclopentyl-7-ethyl-5,6,7,8-tetrahydro-5-methyl-6-oxo-2-pteridinyl]amino]-3-methoxy-N-(1-methyl-4-piperidinyl)-benzamide]
MES-SA
  EC50: 10 nM
NCI-N87
  EC50: 14 nM
BxPC-3 [1]
  EC50: 25 nM
NCI-H520 [2]
  EC50: 10 nM
A549 [3]
  EC50: 6 nM
GRANTA-519 [4]
  EC50: 5 nM
Raji [5]
  EC50: 14 nM
HCT116
  EC50: 9 nM
Colo 205
  EC50: 9 nM
BRO
  EC50: 4 nM
PC-3 [6]
  EC50: 7 nM
HeLa S3 [7]
  EC50: 12 nM
Saos-2 [8]
  EC50: 8 nM
SKOV-3 [9]
  EC50: 4 nM
DU145
  EC50: 6 nM
H4 [10]
  EC50: 22 nM
THP-1
  EC50: 9 nM
A431 [11]
  EC50: 2 nM
HL-60
  EC50: 14 nM
Mia CaPa-2
  EC50: 7 nM
NCI-H460 [12]
  EC50: 14 nM
HT29
  EC50: 4 nM
MCF7
  EC50: 9 nM
SK-UT-1B
  EC50: 8 nM
FaDu [13]
  EC50: 6 nM
MDA-MB-435S [14]
  EC50: 17 nM
HepG2 [15]
  EC50: 10 nM
BxPC-3 [16]
  EC50: 22 nM
NCI-H520 [17]
  EC50: 18 nM
A549 [18]
  EC50: 14 nM
GRANTA-519 [19]
  EC50: 12 nM
Raji [20]
  EC50: 20 nM
PC-3 [21]
  EC50: 12 nM
HeLa S3 [22]
  EC50: 16 nM
Saos-2 [23]
  EC50: 11 nM
SKOV-3 [24]
  EC50: 11 nM
H4 [25]
  EC50: 39 nM
A431 [26]
  EC50: 6 nM
NCI-H460 [27]
  EC50: 32 nM
FaDu [28]
  EC50: 7 nM
MDA-MB-435S [29]
  EC50: 38 nM
HepG2 [30]
  EC50: 39 nM
